Data as given in patent publication US7045515B2, “β-lactam compounds process for reproducing the same and serum cholesterol-lowering agents containing the same” (Kotobuki Pharmaceutical Co., Ltd., priority 2001, dated 2006).
Read-outs that look alike come from different tables or passages of the source.

Columns and labels:
[1] = tested on: hypercholesterolemic hamster; assay: Hypocholesterolemic activity in hamsters fed a 0.5%-cholesterol diet; format: in vivo; settings: Mesocricetus auratus, po, negative = hypocholesterolemic action, read-out: Serum cholesterol (%); for change in vivo at 3 mg/kg: 3 mg/kg orally daily; for change in vivo at 20 mg/kg: 20 mg/kg orally daily
Description: [Hypocholesterolemic Agents Using the Hypercholesterolemic Hamster]
Hamsters were derived into groups with 3 animals per group and fed a 0.5%-cholesterol containing CE-2 diet (CLEA Japan Inc.) for 4 or 7 days. The normal dietary group were fed a standard CE-2 during the experiment. Each compound or vehicle (0.2 mL of corn oil) per 100 g body weight was orally administered daily for 4 or 7 days from the day that high-cholesterol diet was started. At 20 hr after the final administration, blood samples were collected from the abdominal aorta of non-fasted animals under anesthesia with diethylether. Serum cholesterol was measured by enzymatic method using cholesterol E-test wako (Wako Pure Chemical Industries). Activity of the test compounds is expressed as percent reduction of the test compound on the basis of comparison with rised total cholesterol treated only with no-treatment-high-cholesterol diet. The test compounds with the optical rotation value in the compounds 1–58 were evaluated as the chiral compounds.

[2] = 168 h, dosage day 7, changed percent vs rise in total cholesterol on high-cholesterol diet
[3] = 96 h, dosage day 4, changed percent

melting point [°C] | Structure (SMILES) | change in vivo at 3 mg/kg [1, 2] [%] | change in vivo at 20 mg/kg [1, 3] [%] | change in vivo at 10 mg/kg ([1]; 96 h, 10 mg/kg orally daily, dosage day 4, changed percent) [%] | change in vivo at 3 mg/kg [1, 3] [%]
110 to 112 | O=C1[C@H](CCCc2ccc(F)cc2)[C@@H](c2ccc(C[C@@H]3O[C@H](CO)[C@@H](O)[C@H](O)[C@H]3O)cc2)N1c1ccc(F)cc1 (relative stereo) [Compound 2, (4S*,3R*)-4-(4-{[(2S,5S,3R,4R,6R)-3,4,5-Trihydroxy-6-(hydroxymethyl)perhydro-2H-pyran-2-yl]methyl}phenyl)-1-(4-fluorophenyl)-3-[3-(4-fluorophenyl)propyl]azetidine-2-one] | -120 | – | – | –
64 to 65 | O=C1[C@H](CCOc2ccc(F)cc2)[C@@H](c2ccc(OCC3O[C@H](CO)[C@@H](O)[C@H](O)[C@H]3O)cc2)N1c1ccc(F)cc1 (relative stereo) [Compound 15, (4S*,3R*)-4-(4-{[(4S,5S,2R,3R,6R)-3,4,5-Trihydroxy-6-(hydroxymethyl)perhydro-2H-pyran-2-yl]methoxy}phenyl)-1-(4-fluorophenyl)-3-[2-(4-fluorophenoxy)ethyl]azetidine-2-one] | – | -21 | – | –
111 to 113 | O=C1[C@H](CC[C@H](O)c2ccc(C3OC(CO)C(O)C(O)C3O)cc2)C(c2ccc(F)cc2)N1c1ccc(F)cc1 (stereo in doubt) [Compound 49, 3-((3S)-(4-[(2S,5S,3R,4R,6R)-3,4,5-Trihydroxy-6-(hydroxymethyl)perhydro-2H-pyran-2-yl]phenyl}-3-hydroxypropyl)(4S,3R)-1,4-bis(4-fluorophenyl)azetidine-2-one] | – | – | -55 | –

Second part, the compound before the results:

Structure (SMILES) | melting point [°C] | change in vivo at 3 mg/kg [1, 2] [%] | change in vivo at 20 mg/kg [1, 3] [%] | change in vivo at 10 mg/kg ([1]; 96 h, 10 mg/kg orally daily, dosage day 4, changed percent) [%] | change in vivo at 3 mg/kg [1, 3] [%]
CC(=O)OC[C@H]1O[C@@H](Cc2ccc([C@@H]3[C@@H](CCOc4ccc(F)cc4)C(=O)N3c3ccc(F)cc3)cc2)[C@H](OC(C)=O)[C@@H](OC(C)=O)[C@@H]1OC(C)=O (relative stereo) [Compound 13, (3S,2R,4R,5R,6R)-2-[(4-{(4S*,3R*)-1-(4-Fluorophenyl)-3-[2-(4-fluorophenoxy)ethyl]-2-oxoazetidine-4-yl}phenyl)methyl]-4,5-diacetyloxy-6-(acetoxymethyl)perhydro-2H-pyran-3-ylacetate] | 64 to 66 | – | -28 | – | –
O=C1[C@H](CC[C@H](O)c2ccc(F)cc2)[C@@H](c2ccc(C[C@@H]3O[C@H](CO)[C@@H](O)[C@H](O)[C@H]3O)cc2)N1c1ccccc1 [Compound 23, (4S,3R)-3-[(3S)-3-(4-Fluorophenyl)-3-hydroxypropyl]-4-(4-{[(2S,5S,3R,4R,6R)-3,4,5-trihydroxy-6-(hydroxymethyl)perhydro-2H-pyran-2-yl]methyl}phenyl)-1-phenylazetidine-2-one] | 104 to 106 | -177 | – | – | –
Cc1ccc(N2C(=O)[C@H](CC[C@H](O)c3ccc(F)cc3)[C@H]2c2ccc(C[C@@H]3O[C@H](CO)[C@@H](O)[C@H](O)[C@H]3O)cc2)cc1 [Compound 24, (4S,3R)-3-[(3S)-3-(4-Fluorophenyl)-3-hydroxypropyl]-4-(4-{[(2S,5S,3R,4R,6R)-3,4,5-trihydroxy-6-(hydroxymethyl)perhydro-2H-pyran-2-yl]methyl}phenyl)-1-(4-methylphenyl)azetidine-2-one] | 102 to 104 | -156 | – | – | –
Cc1ccc(N2C(=O)[C@H](CCC(=O)c3ccc(F)cc3)[C@H]2c2ccc(C[C@@H]3O[C@H](CO)[C@@H](O)[C@H](O)[C@H]3O)cc2)cc1 [Compound 28, (4S,3R)-4-(4-{[(2S,5S,3R,4R,6R)-3,4,5-Trihydroxy-6-(hydroxymethyl)perhydro-2H-pyran-2-yl]methyl}phenyl)-1-(4-methylphenyl)-3-[3-(4-fluorophenyl)-3-oxopropyl]azetidine-2-one] | 86 to 88 | -130 | – | – | –
O=C(O)[C@H]1O[C@@H](Cc2ccc([C@@H]3[C@@H](CC[C@H](O)c4ccc(F)cc4)C(=O)N3c3ccc(F)cc3)cc2)[C@H](O)[C@@H](O)[C@@H]1O [Compound 33] | 82 to 84 | – | – | – | -67
